# System: organophosphorous agent resistant two-spotted spider mites
# Assay: Effect on Two-spotted Spider Mite (spray on kidney bean leaves)
# Format: in vivo
# Conditions: 125 ppm, water dispersible powder of Formulation Example 1 sprayed, 17 female adults, 25° C., 65% humidity, 3 days
# Text: Effect on Two-spotted Spider Mite
# 17 female adults of organophosphorous agent resistant two-spotted spider mites were inoculated onto the first leaves of kidney beans seeded onto 3.5 inch pots and germinated 7 to 10 days before, onto which each of liquid agents, diluted with water so as to adjust the respective concentration of the chemical compounds to 125 ppm according to the formulation of the water dispersible powder shown in the aforementioned Formulation Example 1, was sprayed. After they were left in a thermostatic chamber at 25° C. in 65% humidity for 3 days, the rate of killed adults was investigated. The examination was repeated twice. As the results, the following chemical compounds killed 100% of the adults.
row,Structure (SMILES),rate of killed adults [%]
1,O=C(OCC(F)(F)F)c1cc(C(F)(F)F)ccc1OC1CC2CCC(C1)N2c1ccc(C(F)(F)F)cn1 (stereo not drawn) [2-240],100
2,"CC(C)=COc1cc(C(F)(F)F)ccc1O[C@H]1C[C@H]2CC[C@@H](C1)N2c1ccc(C(F)(F)F)cn1 [2-245, 3α-[2-(2-methylpropenyloxy)-4-(trifluoromethyl)phenoxy]-8-[5-(trifluoromethyl)-2-pyridyl]-8-azabicyclo[3.2.1]octane]",100
3,FC(F)COc1cc(C(F)(F)F)ccc1OC1CC2CCC(C1)N2c1ccc(C(F)(F)F)cn1 (stereo not drawn) [2-246],100
4,C=CC(C)OC(=O)c1cc(C(F)(F)F)ccc1OC1CC2CCC(C1)[N+]2([O-])c1ccc(C(F)(F)F)cn1 (stereo not drawn) [2-247],100
5,N#Cc1cc(C(F)(F)F)ccc1O[C@@H]1[C@@H]2CC[C@H]1CN(c1ccc(C(F)(F)F)cn1)C2 [5-32],100
6,O=[N+]([O-])c1cc(C(F)(F)F)ccc1O[C@@H]1[C@@H]2CC[C@H]1CN(c1ccc(C(F)(F)F)cn1)C2 [5-38],100
7,COCOCc1cc(O[C@@H]2[C@@H]3CC[C@H]2CN(c2ccc(C(F)(F)F)cn2)C3)ccc1C(F)(F)F [5-70],100
8,C=CCc1cc(C(F)(F)F)ccc1O[C@@H]1[C@@H]2CC[C@H]1CN(c1ccc(C(F)(F)F)cn1)C2 [5-75],100
9,COc1cc(C(F)(F)F)ccc1O[C@@H]1[C@@H]2CC[C@H]1CN(c1ccc(C(F)(F)F)cn1)C2 [5-89],100
10,CCCOc1cc(C(F)(F)F)ccc1O[C@@H]1[C@@H]2CC[C@H]1CN(c1ccc(C#N)cn1)C2 [5-96],100
11,CCCOc1cc(C(F)(F)F)ccc1O[C@@H]1[C@@H]2CC[C@H]1CN(c1ccc(C(F)F)cn1)C2 [5-99],100
12,CCCOc1cc(C(F)(F)F)ccc1O[C@@H]1[C@@H]2CC[C@H]1CN(c1ccc(C=O)cn1)C2 [5-100],100
13,CCCOc1cc(C#N)ccc1O[C@@H]1[C@@H]2CC[C@H]1CN(c1ccc(C(F)(F)F)cn1)C2 [5-102],100
14,FC(F)(F)c1ccc(N2C[C@H]3CC[C@@H](C2)[C@@H]3Oc2ccc(C(F)(F)F)cc2OC2CC2(Cl)Cl)nc1 (stereo partly drawn) [5-104],100
15,FC(F)(F)c1ccc(N2C[C@H]3CC[C@@H](C2)[C@@H]3Oc2ccc(C(F)(F)F)cc2OCc2ccccc2)nc1 [5-106],100
16,CC(=O)OC(C)COc1cc(C(F)(F)F)ccc1O[C@@H]1[C@@H]2CC[C@H]1CN(c1ccc(C(F)(F)F)cn1)C2 (stereo partly drawn) [5-114],100
17,COCCOc1cc(C(F)(F)F)ccc1O[C@@H]1[C@@H]2CC[C@H]1CN(c1ccc(C#N)cn1)C2 [5-125],100
18,CC(=O)COc1cc(C(F)(F)F)ccc1O[C@@H]1[C@@H]2CC[C@H]1CN(c1ccc(C(F)(F)F)cn1)C2 [5-126],100
19,CC(O)COc1cc(C(F)(F)F)ccc1OC1C2CCC1CN(c1ccc(C(F)(F)F)cn1)C2 (stereo not drawn) [5-127],100
20,COC(C)COc1cc(C(F)(F)F)ccc1OC1C2CCC1CN(c1ccc(C(F)(F)F)cn1)C2 (stereo not drawn) [5-128],100
21,CC(C)(O)COc1cc(C(F)(F)F)ccc1OC1C2CCC1CN(c1ccc(C(F)(F)F)cn1)C2 (stereo not drawn) [5-129],100
22,COC(C)(C)COc1cc(C(F)(F)F)ccc1OC1C2CCC1CN(c1ccc(C(F)(F)F)cn1)C2 (stereo not drawn) [5-130],100
23,CC(=O)OCCOc1cc(C(F)(F)F)ccc1OC1C2CCC1CN(c1ccc(C(F)(F)F)cn1)C2 (stereo not drawn) [5-134],100
24,CC(Cl)COc1cc(C(F)(F)F)ccc1OC1C2CCC1CN(c1ccc(C(F)(F)F)cn1)C2 (stereo not drawn) [5-138],100
25,CC(C)=CCOc1cc(C(F)(F)F)ccc1OC1C2CCC1CN(c1ccc(C(F)(F)F)cn1)C2 (stereo not drawn) [5-139],100
26,FC(F)(F)c1ccc(N2CC3CCC(C2)C3Oc2ccc(C(F)(F)F)cc2OCCCl)nc1 (stereo not drawn) [5-147],100
27,CS(=O)(=O)Oc1cc(C(F)(F)F)ccc1OC1C2CCC1CN(c1ccc(C(F)(F)F)cn1)C2 (stereo not drawn) [5-161],100
